Source: ChEMBL document CHEMBL1201862, “PubChem BioAssay data set” (2004)
Activity calls are given as the source filed them.

Legend:
Tumor necrosis factor = Tumor necrosis factor (Homo sapiens, UniProt P01375); assay: analog potency on TNFa NF-kB signaling – cell-based, revised, SAR follow-up (AID 2337); assay type: functional
[1] = Luminescence Cell-Based Dose Retest to Confirm Inhibitors of Cancer Stem Cells. [Related pubchem assays (depositor defined):AID2717, AID2721]; assay type: functional; settings: Homo sapiens
[2] = biological target: T1, Nucleotide-binding oligomerization domain-containing protein 1 (Homo sapiens, UniProt Q9Y239); assay: blockers of NOD1 pathway activity – revised, SAR follow-up (AID 2333); assay type: functional
T1 sequence (Q9Y239 whole entry): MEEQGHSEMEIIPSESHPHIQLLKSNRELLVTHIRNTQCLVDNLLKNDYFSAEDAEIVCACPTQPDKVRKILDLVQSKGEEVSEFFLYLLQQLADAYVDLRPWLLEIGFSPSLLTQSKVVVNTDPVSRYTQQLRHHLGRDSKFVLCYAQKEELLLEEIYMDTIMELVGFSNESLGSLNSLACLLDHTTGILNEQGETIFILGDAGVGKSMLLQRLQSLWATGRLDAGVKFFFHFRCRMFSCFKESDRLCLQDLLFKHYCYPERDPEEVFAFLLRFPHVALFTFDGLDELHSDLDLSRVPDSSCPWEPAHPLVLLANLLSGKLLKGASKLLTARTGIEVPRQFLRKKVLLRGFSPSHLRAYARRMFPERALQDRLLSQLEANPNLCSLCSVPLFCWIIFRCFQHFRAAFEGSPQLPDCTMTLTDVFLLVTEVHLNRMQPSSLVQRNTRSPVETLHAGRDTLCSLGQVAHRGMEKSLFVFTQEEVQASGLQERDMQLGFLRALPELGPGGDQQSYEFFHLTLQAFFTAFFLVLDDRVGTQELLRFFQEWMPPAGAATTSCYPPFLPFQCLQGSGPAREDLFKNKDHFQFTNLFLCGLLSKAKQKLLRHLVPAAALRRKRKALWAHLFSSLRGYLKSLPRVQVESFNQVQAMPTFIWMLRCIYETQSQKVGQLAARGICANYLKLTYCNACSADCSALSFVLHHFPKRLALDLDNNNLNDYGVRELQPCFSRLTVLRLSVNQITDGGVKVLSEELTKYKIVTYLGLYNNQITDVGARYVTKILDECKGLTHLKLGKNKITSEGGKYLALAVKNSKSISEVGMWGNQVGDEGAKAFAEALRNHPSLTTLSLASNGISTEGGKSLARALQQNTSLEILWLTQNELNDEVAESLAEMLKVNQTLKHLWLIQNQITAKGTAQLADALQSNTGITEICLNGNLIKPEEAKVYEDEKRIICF

[3] = biological target: Nucleotide-binding oligomerization domain-containing protein 2 (Homo sapiens, UniProt Q9HC29); assay: PubChem AID 2334; assay type: functional
HEK293 [4] = assay: cells; settings: Homo sapiens
[5] = biological target: Delta-type opioid receptor (Homo sapiens, UniProt P41143); assay: Counterscreen for agonists of heterodimerization of the mu 1 (OPRM1) and delta 1 (OPRD1) opioid receptors: Luminescence-based cell-based high throughput dose response assay to identify agonists of OPRD1 homodimerization. [Related pubchem assays (depositor defined):AID504326, AID504355, AID504692, AID504904, AID504905]; assay type: functional
Mu-type opioid receptor = Mu-type opioid receptor (Homo sapiens, UniProt P35372); assay: Counterscreen for agonists of heterodimerization of the mu 1 (OPRM1) and delta 1 (OPRD1) opioid receptors: Luminescence-based cell-based high throughput dose response assay to identify agonists of OPRM1 homodimerization.; assay type: functional;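 note: U2OS cells expressing OPRM1 and beta-arrestin as split beta-galactosidase partners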
[6] = biological target: 5-hydroxytryptamine receptor 5A (Homo sapiens, UniProt P47898); assay: Counterscreen for agonists of OPRM1-OPRD1 heterodimerization: luminescence-based cell-based high throughput dose response assay to identify agonists of 5-hydroxytryptamine (serotonin) 5A receptor (HTR5A). [Related pubchem assays (depositor defined):AID504326, AID504355, AID504692, AID504904, AID504905]; assay type: functional
[7] = system: Streptococcus sp. 'group A'; assay: Streptococcus pyogenes SK(-)GAS viability under kanamycin – luminescence, BacTiterGlo, confirmation, counter-screen for streptokinase expression inhibitor project, dose response (AID 1900); assay type: functional, organism-based
Streptokinase A = biological target: T2, Streptokinase A (Streptococcus pyogenes serotype M1, UniProt P10520); assay: viability-normalized secreted streptokinase activity reduction – plasminogen activation absorbance, OD405, dose response (AID 1914); assay type: functional, Streptococcus pyogenes M1 GAS;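 note: secreted streptokinase activity via plasminogen activation per viability signal from cell pellet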
T2 sequence (P10520 whole entry): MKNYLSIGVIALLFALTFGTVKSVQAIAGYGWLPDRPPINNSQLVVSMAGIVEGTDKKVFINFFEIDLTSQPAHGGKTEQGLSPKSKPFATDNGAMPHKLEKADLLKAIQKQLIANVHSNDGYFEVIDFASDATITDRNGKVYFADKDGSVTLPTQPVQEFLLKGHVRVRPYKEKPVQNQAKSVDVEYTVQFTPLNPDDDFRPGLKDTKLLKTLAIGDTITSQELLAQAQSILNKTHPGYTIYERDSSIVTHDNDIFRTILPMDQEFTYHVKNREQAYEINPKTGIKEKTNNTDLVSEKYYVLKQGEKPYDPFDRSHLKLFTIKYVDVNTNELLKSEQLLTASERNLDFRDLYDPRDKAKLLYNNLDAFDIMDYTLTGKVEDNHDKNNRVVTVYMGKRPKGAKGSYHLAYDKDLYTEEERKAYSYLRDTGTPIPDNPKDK

[8] = microbe, parasite or virus in culture; assay type: functional; settings: Mycobacterium tuberculosis
Streptococcus = assay: GAS UMAA2166 growth inhibition – luminescence, BacTiterGlo, counter-screen for streptokinase expression inhibitor project, dose response (AID 1915); assay type: functional, organism-based;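 note: potency for reduction of bacterial viability or growth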
Vero [9] = assay: cells; assay type: functional, cell-based; settings: Chlorocebus sabaeus
Vero [10] = assay: cells; assay type: functional; settings: Chlorocebus sabaeus
[11] = reduction of Shn3 3'UTR-driven luciferase in osteoblasts – cell-based, Clone20 osteoblasts, firefly luciferase, cherry-picked, dose response (AID 624132); assay type: functional;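 note: firefly luciferase luminescence from reporter carrying the Shn3 3'UTR in osteoblasts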
[12] = non-specific 3'UTR reporter inhibition in Clone20-Shn3RL – cell-based, Renilla luciferase, cherry-picked, counter-screen for Shn3 inhibitor project, dose response (AID 624133); assay type: functional
[13] = biological target: Lysine-specific demethylase 4C (Homo sapiens, UniProt Q9H3R0); assay: inhibition of JMJD2C H3K9me3 demethylation – biochemical, DELFIA europium, cherry-picked samples, dose response (AID 488835); assay type: functional
[14] = biological target: T3, Dual specificity protein phosphatase 3 (Homo sapiens, UniProt P51452); assay: VHR1 phosphatase inhibitors, primary screen, biochemical, absorbance, uHTS (AID 1654)
[15] = biological target: T4, Voltage-gated N-type calcium channel alpha-1B subunit/Amyloid beta A4 precursor protein-binding family A member 1 (Homo sapiens, UniProt Q00975+Q02410); assay type: protein assay
[16] = biological target: T4, Voltage-gated N-type calcium channel alpha-1B subunit/Amyloid beta A4 precursor protein-binding family A member 1; assay type: protein assay; remark: listed apart in the source
[17] = biological target: T3, Dual specificity protein phosphatase 3; assay: VHR1 phosphatase inhibitors, biochemical (AID 1878)
[18] = biological target: T5, Dual specificity protein phosphatase 6 (Rattus norvegicus, UniProt Q64346); assay: inhibition of rat DUSP6 enzyme activity – biochemical, in vitro, primary screen (AID 425)
T5 sequence (Q64346 whole entry): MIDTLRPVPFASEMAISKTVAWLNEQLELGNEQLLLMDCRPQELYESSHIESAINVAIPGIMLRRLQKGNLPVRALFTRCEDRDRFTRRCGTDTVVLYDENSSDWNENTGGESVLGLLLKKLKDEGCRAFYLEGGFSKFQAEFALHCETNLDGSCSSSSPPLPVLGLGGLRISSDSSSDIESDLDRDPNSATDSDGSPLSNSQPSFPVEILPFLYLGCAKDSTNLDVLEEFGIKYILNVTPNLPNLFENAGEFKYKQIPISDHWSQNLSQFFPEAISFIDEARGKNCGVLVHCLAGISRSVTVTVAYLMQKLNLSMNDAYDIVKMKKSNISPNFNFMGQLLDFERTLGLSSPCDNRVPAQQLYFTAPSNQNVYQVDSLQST

Albumin = Albumin (Bos taurus, UniProt P02769); assay: Counterscreen for inhibitors of T-cell receptor (TCR)-CD3 interaction: Fluorescence-based biochemical high throughput dose response assay to identify inhibitors of T-cell receptor (TCR)-CD3 interaction using a TAMRA-labeled BSA probe.; assay type: functional
[19] = luciferase reporter signal suppression in cells – H4 neuroglioma cells, luminescence, dose response (AID 1990); assay type: functional, cell-based
[20] = Luminescence Cell-Based Dose Response HTS to Identify Inhibitors of 5'UTR Stem-Loop Driven Prion Protein mRNA Translation in H4 Neuroglioblastoma Cells. [Related pubchem assays: 1827 (Project Summary), 1813 (Primary HTS)]; assay type: functional
Beta-galactosidase [21] = biological target: T6, Beta-galactosidase (Escherichia coli, UniProt Q8VNN2); assay: PubChem AID 485352; assay type: functional
[22] = alpha-synuclein stem-loop luciferase translation blockers – H4 neuroglioma cells, luminescence, confirmation (AID 1988); assay type: functional, cell-based
[23] = biological target: T7, Type-1 angiotensin II receptor (Homo sapiens, UniProt P30556); assay: antagonism of angiotensin II type 1 receptor – cell-based, uHTS hits, selectivity assay for APJ receptor antagonist project, dose response (AID 463214); assay type: functional;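 note: antagonist potency against angiotensin II stimulated AT1 response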
T7 sequence (P30556 whole entry): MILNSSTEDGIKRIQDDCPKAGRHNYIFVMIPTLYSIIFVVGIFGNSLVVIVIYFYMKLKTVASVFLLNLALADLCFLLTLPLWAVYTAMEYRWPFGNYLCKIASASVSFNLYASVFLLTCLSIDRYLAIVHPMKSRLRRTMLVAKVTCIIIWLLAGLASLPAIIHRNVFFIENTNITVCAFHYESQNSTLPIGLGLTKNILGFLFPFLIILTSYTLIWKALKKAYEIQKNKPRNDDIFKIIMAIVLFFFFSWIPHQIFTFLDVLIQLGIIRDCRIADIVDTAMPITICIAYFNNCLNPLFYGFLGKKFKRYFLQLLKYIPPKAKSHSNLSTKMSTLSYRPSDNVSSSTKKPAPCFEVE

Nonstructural protein 1 = Nonstructural protein 1 (Influenza A virus, UniProt Q194T2); assay type: functional, Influenza A virus (A/California/07/2009(H1N1))
HEK293 [24] = assay: EBV LMP1 TES2 canonical NF-kB signalling blockers – cell-based, HEK293, luciferase, cherry-pick, dose response (AID 588343); assay type: functional; settings: Homo sapiens
INS1 = assay: INS-1E survival protection against cytokine death – cell-based, luminescence, retest, dose response (AID 449756); assay type: functional; settings: Rattus norvegicus;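 note: cell death triggered by IL-1 beta plus TNF-alpha plus IFN-gamma mixture; protective hits raise ATP signal compared with cytokine alone wells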
Beta-galactosidase [25] = biological target: T6, Beta-galactosidase; assay: Dose response counterscreen for EBI2 assay utilizing the enzyme, b-galactosidase.; assay type: functional

T4 sequence (Q00975 whole entry): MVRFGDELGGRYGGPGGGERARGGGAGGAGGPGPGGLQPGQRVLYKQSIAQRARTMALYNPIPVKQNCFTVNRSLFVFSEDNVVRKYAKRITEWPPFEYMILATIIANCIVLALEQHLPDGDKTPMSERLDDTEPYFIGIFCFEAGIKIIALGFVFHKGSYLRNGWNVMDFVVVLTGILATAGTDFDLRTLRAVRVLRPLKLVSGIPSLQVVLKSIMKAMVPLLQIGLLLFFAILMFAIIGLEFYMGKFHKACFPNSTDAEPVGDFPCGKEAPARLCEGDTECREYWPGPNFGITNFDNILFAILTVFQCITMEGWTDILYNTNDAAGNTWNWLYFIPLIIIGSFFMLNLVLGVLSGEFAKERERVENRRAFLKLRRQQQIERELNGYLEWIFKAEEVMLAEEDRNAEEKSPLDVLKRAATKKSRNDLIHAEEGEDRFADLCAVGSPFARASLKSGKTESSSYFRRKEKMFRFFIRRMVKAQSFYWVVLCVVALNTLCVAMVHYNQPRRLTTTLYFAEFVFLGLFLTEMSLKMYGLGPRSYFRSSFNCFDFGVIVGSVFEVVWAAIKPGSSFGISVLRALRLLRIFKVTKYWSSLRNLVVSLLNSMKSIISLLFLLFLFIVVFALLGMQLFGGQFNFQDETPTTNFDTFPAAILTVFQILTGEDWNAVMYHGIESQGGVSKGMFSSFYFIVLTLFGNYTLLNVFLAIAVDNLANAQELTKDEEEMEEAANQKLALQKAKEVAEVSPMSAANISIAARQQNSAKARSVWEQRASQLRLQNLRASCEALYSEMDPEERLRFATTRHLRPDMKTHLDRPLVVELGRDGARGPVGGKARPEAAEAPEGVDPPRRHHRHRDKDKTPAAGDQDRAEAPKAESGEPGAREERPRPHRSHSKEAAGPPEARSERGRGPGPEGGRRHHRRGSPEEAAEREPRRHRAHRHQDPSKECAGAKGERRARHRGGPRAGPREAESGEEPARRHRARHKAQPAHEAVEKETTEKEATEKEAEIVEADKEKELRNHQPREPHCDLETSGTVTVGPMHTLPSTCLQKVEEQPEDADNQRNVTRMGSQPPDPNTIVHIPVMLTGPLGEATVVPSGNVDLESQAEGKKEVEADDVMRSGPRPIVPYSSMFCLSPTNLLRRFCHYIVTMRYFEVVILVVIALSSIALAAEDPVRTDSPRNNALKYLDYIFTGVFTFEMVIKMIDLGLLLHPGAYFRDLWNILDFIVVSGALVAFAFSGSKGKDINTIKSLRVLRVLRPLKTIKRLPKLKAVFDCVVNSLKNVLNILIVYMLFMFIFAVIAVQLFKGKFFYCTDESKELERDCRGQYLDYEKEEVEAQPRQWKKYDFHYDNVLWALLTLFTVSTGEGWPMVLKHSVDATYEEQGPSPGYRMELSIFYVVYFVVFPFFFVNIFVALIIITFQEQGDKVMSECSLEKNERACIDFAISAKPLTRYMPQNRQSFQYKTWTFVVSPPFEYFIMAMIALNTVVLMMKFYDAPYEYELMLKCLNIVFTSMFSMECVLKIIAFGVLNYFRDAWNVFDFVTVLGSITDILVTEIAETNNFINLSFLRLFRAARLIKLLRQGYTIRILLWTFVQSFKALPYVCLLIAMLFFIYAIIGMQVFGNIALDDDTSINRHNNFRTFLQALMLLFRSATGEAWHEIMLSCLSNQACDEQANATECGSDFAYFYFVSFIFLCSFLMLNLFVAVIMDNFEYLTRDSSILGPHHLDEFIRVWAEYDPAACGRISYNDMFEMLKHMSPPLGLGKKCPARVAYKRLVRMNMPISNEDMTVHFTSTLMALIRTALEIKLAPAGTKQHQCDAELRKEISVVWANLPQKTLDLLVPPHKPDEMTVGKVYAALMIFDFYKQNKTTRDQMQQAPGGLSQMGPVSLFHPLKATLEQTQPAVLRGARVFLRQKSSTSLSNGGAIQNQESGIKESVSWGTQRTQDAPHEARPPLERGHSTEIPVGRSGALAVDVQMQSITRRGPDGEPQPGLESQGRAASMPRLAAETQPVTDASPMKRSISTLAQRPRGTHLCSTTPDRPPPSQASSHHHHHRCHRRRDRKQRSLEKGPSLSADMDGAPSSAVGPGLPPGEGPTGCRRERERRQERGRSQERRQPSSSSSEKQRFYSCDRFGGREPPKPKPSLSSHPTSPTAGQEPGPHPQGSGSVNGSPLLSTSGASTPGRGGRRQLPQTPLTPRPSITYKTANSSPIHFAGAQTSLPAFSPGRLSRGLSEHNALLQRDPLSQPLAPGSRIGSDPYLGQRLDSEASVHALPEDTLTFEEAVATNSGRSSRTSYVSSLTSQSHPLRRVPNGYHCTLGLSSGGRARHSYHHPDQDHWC
T4 sequence (Q02410 whole entry): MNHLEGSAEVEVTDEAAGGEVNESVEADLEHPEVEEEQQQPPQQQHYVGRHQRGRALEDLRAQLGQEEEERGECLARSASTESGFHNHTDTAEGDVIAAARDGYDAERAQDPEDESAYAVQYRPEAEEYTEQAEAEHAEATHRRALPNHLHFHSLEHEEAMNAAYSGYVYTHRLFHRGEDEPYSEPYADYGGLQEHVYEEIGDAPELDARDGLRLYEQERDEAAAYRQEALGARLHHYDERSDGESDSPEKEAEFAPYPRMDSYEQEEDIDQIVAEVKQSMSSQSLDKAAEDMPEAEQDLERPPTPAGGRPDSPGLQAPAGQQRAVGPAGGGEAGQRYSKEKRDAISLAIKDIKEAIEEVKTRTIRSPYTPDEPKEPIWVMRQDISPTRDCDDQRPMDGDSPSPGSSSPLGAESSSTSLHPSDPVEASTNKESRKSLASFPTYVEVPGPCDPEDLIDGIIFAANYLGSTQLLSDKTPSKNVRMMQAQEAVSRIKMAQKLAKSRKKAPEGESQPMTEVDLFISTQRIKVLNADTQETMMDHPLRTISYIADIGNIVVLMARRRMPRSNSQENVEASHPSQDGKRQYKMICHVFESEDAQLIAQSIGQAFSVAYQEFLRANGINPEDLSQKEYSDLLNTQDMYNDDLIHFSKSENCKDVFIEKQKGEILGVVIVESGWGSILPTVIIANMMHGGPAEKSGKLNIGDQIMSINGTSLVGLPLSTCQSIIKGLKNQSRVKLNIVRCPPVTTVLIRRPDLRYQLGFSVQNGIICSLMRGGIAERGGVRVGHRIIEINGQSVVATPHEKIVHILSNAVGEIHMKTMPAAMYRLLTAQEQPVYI
T3 sequence (P51452 whole entry): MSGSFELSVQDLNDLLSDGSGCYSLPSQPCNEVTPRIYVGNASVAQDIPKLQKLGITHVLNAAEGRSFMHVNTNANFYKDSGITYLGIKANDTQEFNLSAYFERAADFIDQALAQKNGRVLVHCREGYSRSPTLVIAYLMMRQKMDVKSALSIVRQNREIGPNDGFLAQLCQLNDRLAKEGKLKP
T6 sequence (Q8VNN2 whole entry): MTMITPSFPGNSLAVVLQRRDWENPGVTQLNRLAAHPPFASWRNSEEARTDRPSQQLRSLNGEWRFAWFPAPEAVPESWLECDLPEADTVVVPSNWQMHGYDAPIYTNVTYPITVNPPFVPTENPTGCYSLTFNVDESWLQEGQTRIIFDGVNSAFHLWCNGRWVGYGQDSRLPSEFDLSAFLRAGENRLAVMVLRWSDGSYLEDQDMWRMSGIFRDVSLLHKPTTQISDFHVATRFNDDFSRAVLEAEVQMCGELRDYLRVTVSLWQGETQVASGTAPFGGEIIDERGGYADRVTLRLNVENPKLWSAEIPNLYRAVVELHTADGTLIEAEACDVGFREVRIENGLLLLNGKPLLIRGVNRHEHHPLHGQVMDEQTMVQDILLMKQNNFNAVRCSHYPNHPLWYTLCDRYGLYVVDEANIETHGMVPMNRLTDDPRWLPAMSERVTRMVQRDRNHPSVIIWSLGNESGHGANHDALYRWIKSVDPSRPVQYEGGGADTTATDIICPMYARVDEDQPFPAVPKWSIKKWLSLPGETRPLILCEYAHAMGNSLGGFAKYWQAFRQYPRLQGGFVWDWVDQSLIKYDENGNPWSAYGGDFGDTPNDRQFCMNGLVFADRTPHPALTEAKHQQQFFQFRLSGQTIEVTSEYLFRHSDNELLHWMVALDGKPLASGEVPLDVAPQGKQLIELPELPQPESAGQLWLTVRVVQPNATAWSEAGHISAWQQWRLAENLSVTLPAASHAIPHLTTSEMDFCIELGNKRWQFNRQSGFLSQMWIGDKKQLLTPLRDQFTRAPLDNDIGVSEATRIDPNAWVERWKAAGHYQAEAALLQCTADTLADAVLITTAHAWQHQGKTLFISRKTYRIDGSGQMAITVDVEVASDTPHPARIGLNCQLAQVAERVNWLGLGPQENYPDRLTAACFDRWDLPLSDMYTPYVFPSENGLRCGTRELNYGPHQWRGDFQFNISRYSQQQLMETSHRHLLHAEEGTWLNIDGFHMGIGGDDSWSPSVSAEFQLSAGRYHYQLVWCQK
Delta-type opioid receptor, sequence (P41143 whole entry): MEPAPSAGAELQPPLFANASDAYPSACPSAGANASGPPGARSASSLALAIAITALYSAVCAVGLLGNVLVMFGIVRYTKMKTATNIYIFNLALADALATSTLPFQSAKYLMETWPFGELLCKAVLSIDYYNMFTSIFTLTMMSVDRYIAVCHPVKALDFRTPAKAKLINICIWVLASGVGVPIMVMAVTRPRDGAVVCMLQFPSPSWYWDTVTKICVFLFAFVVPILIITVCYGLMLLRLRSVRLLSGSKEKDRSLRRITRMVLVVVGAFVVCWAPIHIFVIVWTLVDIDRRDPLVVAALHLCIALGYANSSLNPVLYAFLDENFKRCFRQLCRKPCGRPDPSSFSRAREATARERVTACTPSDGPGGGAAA
Tumor necrosis factor, sequence (P01375 whole entry): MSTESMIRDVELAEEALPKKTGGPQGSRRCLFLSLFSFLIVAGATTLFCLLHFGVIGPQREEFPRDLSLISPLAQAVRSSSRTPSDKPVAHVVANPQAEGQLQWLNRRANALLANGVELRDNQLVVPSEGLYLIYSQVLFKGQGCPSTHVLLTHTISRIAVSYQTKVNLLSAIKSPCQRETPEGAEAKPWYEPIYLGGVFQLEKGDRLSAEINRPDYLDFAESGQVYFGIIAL

With `COC(=O)c1c(NC(=O)c2ccccc2)sc2c1CC(C)(C)OC2` as the compound, how does the IC50 (Tumor necrosis factor) read?
The IC50 was > 20 µM (inactive).

What about the AC50 [1] of the same compound?
Its AC50 is 9.23 µM (active).

What about the IC50 [2] of the same compound?
The IC50 was > 20 µM (inactive).

And the IC50 [3]?
The IC50 was > 20 µM (inactive).

What about the IC50 (HEK293 [4]) of the same compound?
The IC50 was > 20 µM (inactive).

What does the source list for `CSCCCNC(=O)c1ccc(OC2CCN(CCc3ccccc3)CC2)cc1`?
EC50 [5]: > 92.5 µM (inactive); EC50 (Mu-type opioid receptor): > 92.5 µM (inactive); EC50 [6]: > 92.5 µM (inactive)

For `O=C(CSc1ccccn1)Nc1nonc1[N+](=O)[O-]`, which EC50 [7] is on record?
Its EC50 is 5.77 µM (active).

And the EC50 (Streptokinase A)?
Its EC50 is > 150 µM (not active).

And the CC50 [8]?
Its CC50 is 24.5 µM (active).

And the EC50 (Streptococcus)?
The EC50 was > 150 µM (not active).

What about the IC50 (Vero [9]) of the same compound?
The IC50 was > 25 µM (active).

What about the CC50 (Vero [10]) of the same compound?
Its CC50 is 20.7 µM (active).

And the AC50 [11]?
The AC50 was 5 µM (active).

What about the AC50 [12] of the same compound?
The AC50 was 12.5 µM (active).

With `COc1cc2c(cc1OC)C(COc1ccc(F)cc1)NCC2` (centres undefined) as the compound, how does the AC50 [13] read?
Its AC50 is 25.2 µM (active).

With `Cc1cc(=O)oc2cc(OCC(=O)N/N=C/c3cc([N+](=O)[O-])ccc3O)ccc12` as the compound, how does the IC50 [14] read?
Its IC50 is 4.25 µM (active).

And the IC50 [15]?
Its IC50 is > 56.8 µM (not active).

What about the IC50 [16] of the same compound?
The IC50 was > 50 µM (inactive).

What about the IC50 [17] of the same compound?
Its IC50 is 2.6 µM (active).

And the IC50 [18]?
Its IC50 is 24 µM (active).

And the IC50 (Albumin)?
The IC50 was > 94.1 µM (inactive).

Which EC50 [19] does the source give for `C/C(=N/NC(=O)c1ccc(C(C)(C)C)cc1)c1ccccn1` here?
Its EC50 is 3.75 µM (active).

And the EC50 [20]?
Its EC50 is 0.585 µM (active).

And the EC50 (Beta-galactosidase [21])?
The EC50 was > 40 µM (inactive).

And the EC50 [22]?
Its EC50 is 0.455 µM (active).

And the IC50 [23]?
Its IC50 is 3.48 µM (active).

What about the IC50 (Nonstructural protein 1) of the same compound?
The IC50 was 6.97 µM (active).

And the AC50 (HEK293 [24])?
The AC50 was 1.31 µM (active).

What about the IC50 (Vero [9]) of the same compound?
Its IC50 is > 25 µM (active).

What about the AC50 (INS1) of the same compound?
The AC50 was 0.497 µM (active).

What about the CC50 (Vero [10]) of the same compound?
The CC50 was 2.62 µM (active).

What about the IC50 (Beta-galactosidase [25]) of the same compound?
Its IC50 is > 80 µM (inactive).
